Results on 20 compounds are retold here after US8178535B2, “Substituted sulfonamide compounds having bradykinin 1 receptor activity and use thereof as medicaments” (Gruenenthal GmbH, priority 2008, dated 2012).

Assay [1] addresses T1, human B1R receptor (hB1R) (Homo sapiens, UniProt P46663).
T1 construct: host or cells: CHO K1 cells
T1 sequence (P46663 1-353): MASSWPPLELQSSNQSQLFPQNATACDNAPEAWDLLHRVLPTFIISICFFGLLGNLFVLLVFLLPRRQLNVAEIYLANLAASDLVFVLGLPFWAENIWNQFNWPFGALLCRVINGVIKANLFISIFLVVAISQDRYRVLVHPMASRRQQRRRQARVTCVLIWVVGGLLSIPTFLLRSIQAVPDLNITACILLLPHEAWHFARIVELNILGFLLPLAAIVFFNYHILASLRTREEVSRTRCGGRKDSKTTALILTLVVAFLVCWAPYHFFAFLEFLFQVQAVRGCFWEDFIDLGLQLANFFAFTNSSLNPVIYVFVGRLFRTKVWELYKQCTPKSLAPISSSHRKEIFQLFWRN
The assay is described as follows: FLIPR Ca2+ assay (Fluo-4) on CHO K1 cells stably transfected with the human B1R gene. It is filed as cell-based. The note with it: test substance 10 μM, agonist Lys-Des-Arg9-bradykinin 0.5 nM, % inhibition compared to the maximum achievable inhibition; for inhibition at 10 µM: CHO-K1. Put shortly: (§1)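 CHO K1 cells stably expressing human or rat B1R, Fluo-4 loaded, read by FLIPR (Ex 488/Em 540, peak fluorescence). Compound at 10 μM gives % activation vs agonist. After 10 min, agonist added (human: Lys-Des-Arg9-bradykinin 0.5 nM; rat: Des-Arg9-bradykinin 100 nM); % inhibition relative to maximal achievable inhibition.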

In assay [2] the target is T2, B1R receptor of rats (rB1R) (Rattus norvegicus, UniProt P97583).
T2 construct: host or cells: CHO K1 cells
T2 sequence (P97583 1-337): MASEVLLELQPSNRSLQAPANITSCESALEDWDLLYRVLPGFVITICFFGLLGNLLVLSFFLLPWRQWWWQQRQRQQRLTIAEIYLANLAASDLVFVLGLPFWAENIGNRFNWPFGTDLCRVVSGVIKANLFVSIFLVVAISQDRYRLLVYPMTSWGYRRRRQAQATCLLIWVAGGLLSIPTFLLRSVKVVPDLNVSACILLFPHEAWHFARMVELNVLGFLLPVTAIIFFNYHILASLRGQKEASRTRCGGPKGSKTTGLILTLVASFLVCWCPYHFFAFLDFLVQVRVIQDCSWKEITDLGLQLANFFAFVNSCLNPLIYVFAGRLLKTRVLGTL
The assay is described as follows: FLIPR Ca2+ assay (Fluo-4) on CHO K1 cells stably transfected with the B1R gene of rats. Format: cell-based. The note with it: test substance 10 μM, agonist Des-Arg9-bradykinin 100 nM, % inhibition compared to the maximum achievable inhibition; for inhibition at 10 µM: CHO-K1. The method in brief: as §1

The structures appear in SMILES notation.

Regarding `COc1cc(C)c(S(=O)(=O)N2CCCCC2COCC(=O)N2CCn3c(CN4CCCC4)ccc3C2c2ccccc2)c(C)c1` (stereo not shown) [(62), 2-((1-(4-methoxy-2,6-dimethylphenylsulfonyl)piperidin-2-yl)methoxy)-1-(1-phenyl-6-(pyrrolidin-1-ylmethyl)-3,4-dihydropyrrolo[1,2-a]pyrazin-2(1H)-yl)ethanone], the inhibition at 10 µM came out at 102% in assay [1] and 101% in assay [2].

Turning to `Cc1cc(C)c(S(=O)(=O)N2CCCCC2COCC(=O)N2CCn3cccc3C2c2cccc(C(F)(F)F)c2)c(C)c1` (stereo not shown) [(44), 2-((1-(mesitylsulfonyl)piperidin-2-yl)methoxy)-1-(1-(3-(trifluoromethyl)phenyl)-3,4-dihydropyrrolo[1,2-a]pyrazin-2(1H)-yl)ethanone], the inhibition at 10 µM in assay [1] turned out to be 10%; in assay [2] it was 79%.

On to `O=C(CC1CCCCN1S(=O)(=O)c1cccc(C(F)(F)F)c1)N1CCn2c(ccc2-c2cccnc2)C1` (stereo not shown) [(93), 1-(6-(Pyridin-3-yl)-3,4-dihydropyrrolo[1,2-a]pyrazin-2(1H)-yl)-2-(1-(3-(trifluoromethyl)phenylsulfonyl)piperidin-2-yl)ethanone], for which the inhibition at 10 µM was 18% in assay [1] and 55% in assay [2].

`COc1cc(C)c(S(=O)(=O)N2CCCCC2COCC(=O)N2CCn3cccc3C2C(C)(C)C)c(C)c1` (stereo not shown) [(19), 1-(1-tert-butyl-3,4-dihydropyrrolo[1,2-a]pyrazin-2(1H)-yl)-2-((1-(4-methoxy-2,6-dimethyl-phenylsulfonyl)piperidin-2-yl)methoxy)ethanone]: the inhibition at 10 µM in assay [1] was determined as 102%; in assay [2] it was 96%.

As to `CN1CCN(Cc2ccc3n2CCN(C(=O)COCC2CCc4ccccc4N2S(=O)(=O)c2ccc(Cl)c(Cl)c2)C3)CC1` (stereo not shown) [(11), 2-((1-(3,4-dichlorophenylsulfonyl)-1,2,3,4-tetrahydroquinolin-2-yl)methoxy)-1-(6-((4-methylpiperazin-1-yl)methyl)-3,4-dihydropyrrolo[1,2-a]pyrazin-2(1H)-yl)ethanone], the inhibition at 10 µM came to 100% in assay [1] and 56% in assay [2].

Regarding `Cc1cc(C)c(S(=O)(=O)N2CCCCC2COCC(=O)N2CCn3c(CN(C)C)ccc3C2Cc2ccccc2)c(C)c1` (stereo not shown) [(50), 1-(1-benzyl-6-((dimethylamino)methyl)-3,4-dihydropyrrolo[1,2-a]pyrazin-2(1H)-yl)-2-((1-(mesitylsulfonyl)piperidin-2-yl)methoxy)ethanone], the inhibition at 10 µM is 100% in assay [1] and 102% in assay [2].

As for `COc1cc(C)c(S(=O)(=O)N2CCCCC2COCC(=O)N2CCn3cccc3C2c2ccc(C(F)(F)F)cc2F)c(C)c1` (stereo not shown) [(32), 1-(1-(2-fluoro-4-(trifluoromethyl)phenyl)-3,4-dihydropyrrolo[1,2-a]pyrazin-2(1H)-yl)-2-((1-(4-methoxy-2,6-dimethylphenylsulfonyl)piperidin-2-yl)methoxy)ethanone], the inhibition at 10 µM in assay [1] turned out to be 61%; in assay [2], 99%.

As for `O=C(CC1CCCCN1S(=O)(=O)c1cccc(C(F)(F)F)c1)N1CCn2c(CCCN3CCCC3)ccc2C1` (stereo not shown) [(17), 1-(6-(3-(pyrrolidin-1-yl)propyl)-3,4-dihydropyrrolo[1,2-a]pyrazin-2(1H)-yl)-2-(1-(3-(trifluoromethyl)phenylsulfonyl)piperidin-2-yl)ethanone], the inhibition at 10 µM in assay [1] was determined as 50%; in assay [2], 75%.

Take `COc1cc(C)c(S(=O)(=O)N2CCCCC2COCC(=O)N2CCn3c(CN4CCOCC4)ccc3C2c2ccccc2)c(C)c1` (stereo not shown) [(64), 2-((1-(4-methoxy-2,6-dimethylphenylsulfonyl)piperidin-2-yl)methoxy)-1-(6-(morpholinomethyl)-1-phenyl-3,4-dihydropyrrolo[1,2-a]pyrazin-2(1H)-yl)ethanone]: the inhibition at 10 µM was determined as 103% in assay [1] and 102% in assay [2].

Turning to `COc1cc(C)c(S(=O)(=O)N2CCCCC2COCC(=O)N2CCn3ccnc3C2)c(C)c1` (stereo not shown) [(23), 1-(5,6-dihydroimidazo[1,2-a]pyrazin-7(8H)-yl)-2-((1-(4-methoxy-2,6-dimethyl-phenylsulfonyl)piperidin-2-yl)methoxy)ethanone], the inhibition at 10 µM in assay [1] turned out to be 70%; in assay [2] it was 99%.

For `COc1cc(C)c(S(=O)(=O)N2CCCCC2COCC(=O)N2CCn3c(CCc4cccnc4)ccc3C2)c(C)c1` (stereo not shown) [(101), 2-((1-(4-Methoxy-2,6-dimethylphenylsulfonyl)piperidin-2-yl)methoxy)-1-(6-(2-(pyridin-3-yl)ethyl)-3,4-dihydropyrrolo[1,2-a]pyrazin-2(1H)-yl)ethanone], the inhibition at 10 µM in assay [1] came out at 100%; in assay [2], 98%.

In the case of `COc1cc(C)c(S(=O)(=O)N2CCCCC2COCC(=O)N2CCn3cccc3C2c2cccc(F)c2)c(C)c1` (stereo not shown) [(28), 1-(1-(3-fluorophenyl)-3,4-dihydropyrrolo[1,2-a]pyrazin-2(1H)-yl)-2-((1-(4-methoxy-2,6-dimethylphenylsulfonyl)piperidin-2-yl)methoxy)ethanone], the inhibition at 10 µM in assay [1] and in assay [2] was 98% in each case.

Consider `Cc1cc(C)c(S(=O)(=O)N2CCCCC2COCC(=O)N2CCn3cccc3C2C)c(C)c1` (stereo not shown) [(34), 2-((1-(mesitylsulfonyl)piperidin-2-yl)methoxy)-1-(1-methyl-3,4-dehydro-pyrrolo[1,2-a]pyrazin-2(1H)-yl)ethanone], for which the “hB1R [10 μM] % Inhibition” value in assay [1] is given as 76%. Further, the “rB1R [10 μM] % Inhibition” value in assay [2] stood at 99%.

For the compound `Cc1cc(C)c(S(=O)(=O)N2CCCCC2COCC(=O)N2CCn3cccc3C2c2cccnc2)c(C)c1` (stereo not shown) [(35), 2-((1-(mesitylsulfonyl)piperidin-2-yl)methoxy)-1-(1-(pyridin-3-yl)-3,4-dihydropyrrolo[1,2-a]pyrazin-2(1H)-yl)ethanone], the results for the inhibition at 10 µM in assay [1] and in assay [2] were 100% and 97%, respectively.

With `Cc1cc(C)c(S(=O)(=O)N2CCCCC2COCC(=O)N2CCn3c(C)ccc3C2C(C)C)c(C)c1` (stereo not shown) [(59), 1-(1-isopropyl-6-methyl-3,4-dihydropyrrolo[1,2-a]pyrazin-2(1H)-yl)-2-((1-(mesitylsulfonyl)piperidin-2-yl)methoxy)ethanone], the results for the inhibition at 10 µM in assay [1] and in assay [2] were 85% and 103%, respectively.

With `COc1cc(C)c(S(=O)(=O)N2CCCCC2COCC(=O)N2CCn3c(CN4CCN(C)CC4)ccc3C2)c(C)c1` (stereo not shown) [(4), 2-((1-(4-methoxy-2,6-dimethylphenylsulfonyl)piperidin-2-yl)methoxy)-1-(6-((4-methylpiperazin-1-yl)methyl)-3,4-dihydropyrrolo[1,2-a]pyrazin-2(1H)-yl)ethanone], the inhibition at 10 µM in assay [1] was found to be 105%; in assay [2] it was 101%.

Take `Cc1cc(C)c(S(=O)(=O)N2CCCCC2COCC(=O)N2CCn3c(CN4CCOCC4)ccc3C2c2ccccc2)c(C)c1` (stereo not shown) [(49), 2-((1-(mesitylsulfonyl)piperidin-2-yl)methoxy)-1-(6-(morpholinomethyl)-1-phenyl-3,4-dihydropyrrolo[1,2-a]pyrazin-2(1H)-yl)ethanone]: the inhibition at 10 µM in assay [1] and in assay [2] was 103% throughout.

Take `CN1CCN(CCCc2ccc3n2CCN(C(=O)COCC2CCc4ccccc4N2S(=O)(=O)c2ccc(Cl)c(Cl)c2)C3)CC1` (stereo not shown) [(16), 2-((1-(3,4-dichlorophenylsulfonyl)-1,2,3,4-tetrahydroquinolin-2-yl)methoxy)-1-(6-(3-(4-methylpiperazin-1-yl)propyl)-3,4-dihydropyrrolo[1,2-a]pyrazin-2(1H)-yl)ethanone]: the inhibition at 10 µM turned out to be 48% in assay [1] and 92% in assay [2].

In the case of `COc1cc(C)c(S(=O)(=O)N2CCCCC2CCC(=O)N2CCn3cc(-c4ccncc4)nc3C2)c(C)c1` (stereo not shown) [(114), 3-(1-(4-Methoxy-2,6-dimethylphenylsulfonyl)piperidin-2-yl)-1-(2-(pyridin-4-yl)-5,6-dihydroimidazo[1,2-a]pyrazin-7(8H)-yl)propan-1-one], the inhibition at 10 µM in assay [1] is 79%; in assay [2], 98%.

On to `CCC1c2ccc(CN(C)C)n2CCN1C(=O)COCC1CCCCN1S(=O)(=O)c1c(C)cc(C)cc1C` (stereo not shown) [(54), 1-(6-((dimethylamino)methyl)-1-ethyl-3,4-dihydropyrrolo[1,2-a]pyrazin-2(1H)-yl)-2-((1-(mesitylsulfonyl)piperidin-2-yl)methoxy)ethanone], for which the inhibition at 10 µM was determined as 102% in assay [1] and 100% in assay [2].
